Broadly, the Ki is the equilibrium dissociation constant of an inhibitor or competing ligand from its target. The low end stands for a stronger hold on the target, the high end for a looser hold on the target.

Bounds are passed on as bounds.

What all share (assay type): biochemical
In experiment [1] the target is T1, FXIIa (Homo sapiens, UniProt P00748).
T1 construct: FXIIa alpha
T1 sequence (P00748 373-615 limits assumed): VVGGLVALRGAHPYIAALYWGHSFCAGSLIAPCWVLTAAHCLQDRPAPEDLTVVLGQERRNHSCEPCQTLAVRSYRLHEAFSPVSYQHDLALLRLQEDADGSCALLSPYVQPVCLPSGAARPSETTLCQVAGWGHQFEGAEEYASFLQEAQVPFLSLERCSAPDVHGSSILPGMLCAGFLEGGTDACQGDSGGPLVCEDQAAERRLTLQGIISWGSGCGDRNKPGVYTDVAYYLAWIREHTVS
T1 sequence (P00748 20-372 partner limits assumed): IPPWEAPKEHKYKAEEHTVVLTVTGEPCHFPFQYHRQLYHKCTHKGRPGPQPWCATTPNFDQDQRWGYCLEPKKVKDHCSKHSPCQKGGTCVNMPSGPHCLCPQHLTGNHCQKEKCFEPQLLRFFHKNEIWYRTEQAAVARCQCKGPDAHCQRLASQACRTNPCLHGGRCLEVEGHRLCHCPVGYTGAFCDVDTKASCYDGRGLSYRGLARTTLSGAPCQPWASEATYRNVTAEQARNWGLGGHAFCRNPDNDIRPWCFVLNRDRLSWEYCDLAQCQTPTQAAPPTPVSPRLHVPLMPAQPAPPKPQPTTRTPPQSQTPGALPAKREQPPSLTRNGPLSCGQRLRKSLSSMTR
Nature of the experiment: Determination of Factor XIIa inhibition (chromogenic substrate S-2302). The settings on record: human FXIIa alpha, Ki category. The protocol: (§1) The activities of the compounds of the invention have been determined in vitro using the following assays protocols for the screening of activity of FXIIa and other proteases. Each of these assays were performed in a purified system employing the use of chromogenic assays in microplate plate wells. Chromogenic peptide substrates mimicking natural protein substrates are attached via an amide bond to a chromogenic group. Paranitroaniline (pNA) is released from the peptide following catalyses by the proteolytic enzyme; the absorbance increases and can be monitored at 405 nm.
(§2) All compounds were dissolved in 100% (v/v) DMSO to a stock concentration of 10 mM, the highest concentration of compound used in each assay is 500 μM. The final concentrations of DMSO were 5% (v/v) in 50 mM Tris 137 mM NaCl pH 7.4. Where no test compound was added a final concentration of 5% DMSO was employed.
Factor XIIa activity was measured using a chromogenic substrate S-2302 (Chromogenix). Various concentrations of compound were incubated with 10 nM of FXIIa and incubated at 37° C. for 10 minutes in 50 mM Tris, 137 mM NaCl, pH 7.4, prior to the addition of the chromogenic substrate S-2302 at a concentration equal the to the experimentally derived KM. Kinetic readings at 405 nm were monitored every 12 secs for a total duration of 3 hours at 37° C. Gradients of initial rates were determined and employed to calculate IC50 values.
The activity of the compounds of the invention has been categorised based on the Ki values, the categories being “†”, “*”, “**” and “***”. […] The category “**” refers to compounds with a Ki value of 0.2 μM to 0.8 μM.
(§3) Ki═IC50/(1+[Substrate]/Km)
(§4) Where [Substrate] denotes the concentration of substrate used in the assay and Km is the determined value of each enzyme with its own substrate.

Experiment [2] deals with FXa (Homo sapiens, UniProt P00742). As to the kind of experiment: Determination of selectivity: FXa inhibition (chromogenic substrate S2765). The settings on record: fold selectivity for FXIIa over FXa (human); category. The protocol: as §1, §2
Sequence of FXa (P00742 235-488 limits assumed): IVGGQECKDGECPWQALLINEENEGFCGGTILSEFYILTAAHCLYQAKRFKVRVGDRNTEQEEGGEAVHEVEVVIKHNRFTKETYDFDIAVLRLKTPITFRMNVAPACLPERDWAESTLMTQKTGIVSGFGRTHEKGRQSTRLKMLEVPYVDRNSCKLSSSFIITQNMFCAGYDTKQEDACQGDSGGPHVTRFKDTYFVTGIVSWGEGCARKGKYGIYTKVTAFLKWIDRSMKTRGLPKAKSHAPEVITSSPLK
Sequence of FXa (P00742 41-179 partner limits assumed): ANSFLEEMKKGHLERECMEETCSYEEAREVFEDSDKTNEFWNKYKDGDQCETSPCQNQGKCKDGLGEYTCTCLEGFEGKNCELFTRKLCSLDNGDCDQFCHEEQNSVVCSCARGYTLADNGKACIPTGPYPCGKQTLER
(§5) To determine selectivity of test compounds, these test compounds were assayed for inhibitory activity against other serine proteases including FXa and thrombin. Essentially compounds at increasing concentrations were incubated with each enzyme: FXa (5 nM) and thrombin (5 nM), for 10 mins at 37° C. followed by the appropriate chromogenic substrate, S2765 (Chromogenix) and GPR (Bachem) respectively in 50 mM Tris, 137 mM NaCl, pH 7.4. Substrates were used at a concentration equal to the appropriate experimentally derived KM. Kinetic readings at 405 nm were monitored every 12 secs for a total duration of 3 hours at 37° C. Gradients of initial rates were determined and employed to calculate IC50 values. Values of IC50 were converted to Ki values based on the formula:
as §3, §4
The fold selectivity for FXIIa over FXa for the compounds of the invention has been categorised based on the fold selectivity values, the categories being “o”, “oo” and “ooo”. The category “o” refers to fold selectivity values less than 10 (e.g. a fold selectivity value of less than 10 and greater than 1). The category “oo” refers to a fold selectivity value of 10 to 100. The category “ooo” refers to fold selectivity values greater than 100.

The target of experiment [3] is T2, thrombin (Homo sapiens, UniProt P00734).
T2 construct: FXa (5 nM) and thrombin (5 nM)
As to the kind of experiment: Determination of selectivity: thrombin inhibition (chromogenic substrate GPR). The settings on record: fold selectivity for FXIIa over thrombin (human); category. The protocol: as §1, §2, §5, §3, §4
The fold selectivity for FXIIa over thrombin for the compounds of the invention has been categorised based on the fold selectivity values, the categories being “+”, “++” and “+++”. The category “+” refers to fold selectivity values less than 10 (e.g. a fold selectivity value of less than 10 and greater than 1). The category “++” refers to a fold selectivity value of 10 to 100. The category “+++” refers to fold selectivity values greater than 100.

As for `Cc1ccc(C[C@@H]2C[C@@H](C(=O)NCc3cc4cncc(F)c4[nH]3)N(C(=O)[C@@H]3NCCC[C@@H]3C(=O)N3CCCC3)C2)cc1` [Example M05712, (2S,4R)-N-((7-fluoro-1H-pyrrolo[3,2-c]pyridin-2-yl)methyl)-4-(4-methylbenzyl)-1-((2R,3S)-3-(pyrrolidine-1-carbonyl)piperidine-2-carbonyl)pyrrolidine-2-carboxamide], the Ki in experiment [1] lay within 200 to 800 nM. In addition, the “FXa (human)/FXIIa alpha (human)” value in experiment [2] is on record as “∘∘∘”. Besides, the “Thrombin (human)/FXIIa alpha (human)” value in experiment [3] is recorded as “+++ (fold selectivity values greater than 100)”.

Molecule `O=C(NCc1cc2cnccc2[nH]1)[C@@H]1C[C@H](C(F)(F)F)CN1C(=O)[C@@H]1NCCC[C@@H]1C(=O)N1CCCC1` [Example M05720, (2S,4S)-N-((1H-pyrrolo[3,2-c]pyridin-2-yl)methyl)-1-((2R,3S)-3-(pyrrolidine-1-carbonyl)piperidine-2-carbonyl)-4-(trifluoromethyl)pyrrolidine-2-carboxamide] came in with a Ki in experiment [1] below 200 nM. In addition, the “FXa (human)/FXIIa alpha (human)” value in experiment [2] is “∘∘∘”. Further, the “Thrombin (human)/FXIIa alpha (human)” value in experiment [3] is on record as “+++ (fold selectivity values greater than 100)”.

For the molecule `Cc1ccc(C[C@@H]2C[C@@H](C(=O)NCc3ccc4c(cnn4C)c3)N(C(=O)[C@@H]3NCCC[C@@H]3C(=O)N3CCCCC3)C2)cc1` [Example M05733, (2S,4R)-N-((1-methyl-1H-indazol-5-yl)methyl)-4-(4-methylbenzyl)-1-((2R,3S)-3-(piperidine-1-carbonyl)piperidine-2-carbonyl)pyrrolidine-2-carboxamide], the Ki in experiment [1] was below 200 nM. Also, the “FXa (human)/FXIIa alpha (human)” value in experiment [2] is “∘∘∘”. The “Thrombin (human)/FXIIa alpha (human)” value in experiment [3] is “++ (a fold selectivity value of 10 to 100)”.

In experiment [1], `Cc1ccc(C[C@@H]2C[C@@H](C(=O)NCc3ccc4c(cnn4C)c3)N(C(=O)[C@@H]3NCCC[C@@H]3C(=O)N3CCC[C@@H]3C(F)(F)F)C2)cc1` [Example M05747, (2S,4R)-N-((1-methyl-1H-indazol-5-yl)methyl)-4-(4-methylbenzyl)-1-((2R,3S)-3-((R)-2-(trifluoromethyl)pyrrolidine-1-carbonyl)piperidine-2-carbonyl)pyrrolidine-2-carboxamide] had a Ki below 200 nM. Further, the “FXa (human)/FXIIa alpha (human)” value in experiment [2] is listed as “∘∘∘”. For the same molecule, in experiment [3], the “Thrombin (human)/FXIIa alpha (human)” value was “+++ (fold selectivity values greater than 100)”.

For the molecule `Cc1ccc(C[C@@H]2C[C@@H](C(=O)NCc3ccc4[nH]ncc4c3)N(C(=O)[C@@H]3NCCC[C@@H]3C(=O)N3CCCC3)C2)cc1` [Example M05748, (2S,4R)-N-((1H-indazol-5-yl)methyl)-4-(4-methylbenzyl)-1-((2R,3S)-3-(pyrrolidine-1-carbonyl)piperidine-2-carbonyl)pyrrolidine-2-carboxamide], the Ki in experiment [1] is 800 to 5000 nM. The “FXa (human)/FXIIa alpha (human)” value in experiment [2] is “∘∘∘”. The “Thrombin (human)/FXIIa alpha (human)” value in experiment [3] is recorded as “++ (a fold selectivity value of 10 to 100)”.

In the case of `Cc1ccc(C[C@@H]2C[C@@H](C(=O)NCc3ccc4c(cnn4C)c3)N(C(=O)[C@@H]3NCCC[C@@H]3C(=O)N(C)C)C2)cc1` [Example M05751, (2R,3S)-N,N-dimethyl-2-((2S,4R)-2-(((1-methyl-1H-indazol-5-yl)methyl)carbamoyl)-4-(4-methylbenzyl)pyrrlidine-1-carbonyl)piperidine-3-carboxamide], the Ki in experiment [1] was in the range of 200 to 800 nM. The “FXa (human)/FXIIa alpha (human)” value in experiment [2] is “∘∘∘”. The “Thrombin (human)/FXIIa alpha (human)” value in experiment [3] is reported as “+++ (fold selectivity values greater than 100)”.

In turn, `Cc1ccc(C[C@@H]2C[C@@H](C(=O)NCc3ccc4c(cnn4C)c3)N(C(=O)[C@@H]3NCCC[C@@H]3C(=O)N(C)C3CC3)C2)cc1` [Example M05752, (2R,3S)-N-cyclopropyl-N-methyl-2-((2S,4R)-2-(((1-methyl-1H-indazol-5-yl)methyl)carbamoyl)-4-(4-methylbenyl)pyrrolidine-1-carbonyl)piperidine-3-carboxamide] registered a Ki in experiment [1] below 200 nM. Further, the “FXa (human)/FXIIa alpha (human)” value in experiment [2] is “∘∘∘”. The “Thrombin (human)/FXIIa alpha (human)” value in experiment [3] is reported as “++ (a fold selectivity value of 10 to 100)”.

For the molecule `Cc1ccc(C[C@@H]2C[C@@H](C(=O)NCc3ccc4c(cnn4C)c3)N(C(=O)[C@@H]3NCCC[C@@H]3C(=O)N3CCOCC3)C2)cc1` [Example M05753, (2S,4R)—N-((1-methyl-1H-indazol-5-yl)methyl)-4-(4-methylbenzyl)-1-((2R,3S)-3-(morpholine-4-carbonyl)piperidine-2-carbonyl)pyrrolidine-2-carboxamide], the Ki in experiment [1] lay within 200 to 800 nM. Also, the “FXa (human)/FXIIa alpha (human)” value in experiment [2] is “∘∘∘”. In experiment [3], the “Thrombin (human)/FXIIa alpha (human)” value was “++ (a fold selectivity value of 10 to 100)”.

Turning to `Cc1ccc(C[C@@H]2C[C@@H](C(=O)NCc3ccc4c(cnn4C)c3)N(C(=O)[C@@H]3NCCC[C@@H]3C(=O)N3CCNCC3)C2)cc1` [Example M05754, (2S,4R)-N-((1-methyl-1H-indazol-5-yl)methyl)-4-(4-methylbenzyl)-1-((2R,3S)-3-(piperazine-1-carbonyl)piperidine-2-carbonyl)pyrrolidine-2-carboxamide], in experiment [1], the Ki was 200 to 800 nM. The “FXa (human)/FXIIa alpha (human)” value in experiment [2] is listed as “∘∘∘”. Further, the “Thrombin (human)/FXIIa alpha (human)” value in experiment [3] is reported as “+++ (fold selectivity values greater than 100)”.

`Cc1ccc(C[C@@H]2C[C@@H](C(=O)NCc3ccc4c(cnn4C)c3)N(C(=O)[C@H]3[C@@H](C(=O)N4CCCC4)CCCN3C)C2)cc1` [Example M05757, (2S,4R)—N-[(1-methylindazol-5-yl)methyl]-1-[(2R,3S)-1-methyl-3-(pyrrolidine-1-carbonyl)piperidine-2-carbonyl]-4-(p-tolylmethyl)pyrrolidine-2-carboxamide] came in with a Ki in experiment [1] below 200 nM. For the same molecule, the “FXa (human)/FXIIa alpha (human)” value in experiment [2] is reported as “∘∘∘”. In experiment [3], the “Thrombin (human)/FXIIa alpha (human)” value is reported as “+++ (fold selectivity values greater than 100)”.

In experiment [1], `Cc1ccc(C[C@@H]2C[C@@H](C(=O)NCC3Cc4ccncc4C3)N(C(=O)[C@@H]3NCCC[C@@H]3C(=O)N3CCCC3)C2)cc1` (stereo partly drawn) [Example M05764, (2S,4R)-N-((6,7-dihydro-5H-cyclopenta[c]pyridin-6-yl)methyl)-4-(4-methylbenzyl)-1-((2R,3S)-3-(pyrrolidine-1-carbonyl)piperidine-2-carbonyl)pyrrolidine-2-carboxamide] yielded a Ki below 200 nM. Also, the “FXa (human)/FXIIa alpha (human)” value in experiment [2] is “∘∘∘”. In experiment [3], the “Thrombin (human)/FXIIa alpha (human)” value was “+++ (fold selectivity values greater than 100)”.

The record behind these values is US20240294498A1, “FACTOR XIIA INHIBITORS” (Lunac Therapeutics Ltd, priority 2021, published 2024).
